Source: patent publication US20250032403A1, “COMPOSITIONS FOR TREATING PERIODONTAL DISEASES” (GR Biosystems, Inc., priority 2017, published 2025)

Experiments:
[1] = tested on: HGF-1 cells; assay: Cell viability of HGF-1 cells incubated with deferoxamine; format: cell-based, human; conditions: HGF-1, deferoxamine 50, 100, 150 μM
Description: To better characterize the effectiveness of an iron chelator in regulating the upregulation of MMPs, HGF-1 cells were incubated with varying therapeutically relevant concentrations of deferoxamine (50, 100, 150 μM).

[2] = tested on: MMP-2; assay: Western blot of MMP-2 in HGF-1 cells treated with FAC, CMK or deferoxamine; format: cell-based, human; conditions: HGF-1, FAC 20, 50 and 100 μM, 48 hours, FIG. 7
Description: (§1) MMP inhibition was tested using CMK and deferoxamine (DES). Ferric ammonium citrate solid (FAC, Amresco) was prepared in 1 mM hydrochloric acid to form a 50 mM stock solution. Iron solutions were freshly made for each experiment and the iron content quantified through a colorimetric assay. Cells were induced with FAC concentrations of 20, 50, and 100 μM, LPS and CMK or a combination, and the cells were allowed to grow in the incubator for 48 hours.
(§2) During the protein extraction, media was collected, flash frozen and saved for later analysis, including Western Blot and ELISA. Cells were washed with cold PBS and lysed with RIPA buffer (150 mM NaCl, 50 mM Tris, 1% Sodium deoxycholate, 1% Triton X-100 and 0.1% SDS). Cells were collected with a cell scraper and centrifuged at 14000 rpms for 30 minutes. The supernatant was collected and assayed for protein concentration. Samples were mixed with 4×SDS loading buffer (40% Glycerol, 8% SDS, 200 mM Tris-HCl, 400 mM dithiothreitol, 0.005% bromophenol blue) for further analysis.
(§3) Gel electrophoresis was conducted using 12% sodium dodecyl sulfate (SDS) and polyacrylamide gels. Equal amounts (30-50 μg) of protein were loaded in each lane and allowed to separate for 1 hour at 150 V.
(§4) Proteins from gels were transferred into 0.45 μm nitrocellulose paper (Bio-Rad) using tris-glycine transfer buffer with 20% methanol using 400 mAmp for 90 minutes. […]

[3] = tested on: MMP-13; conditions: HGF-1, FAC 20, 50 and 100 μM, 48 hours, FIG. 8
Description: as §1, §2, §3, §4

[4] = tested on: MMP-14; assay: Western blot of MMP-14 in HGF-1 cells treated with FAC, CMK or deferoxamine; format: cell-based, human; conditions: HGF-1, FAC 20, 50 and 100 μM, 48 hours, FIG. 9
Description: as §1, §2, §3, §4

[5] = tested on: MMP-3; format: cell-based, human; conditions: HGF-1 stimulated with FAC 20, 50 and 100 μM, 48 hours, FIG. 11
Description: MMP inhibition was tested using CMK and deferoxamine (DES).
The supernatant was collected and assayed for protein concentration.

[6] = tested on: MMP-9; assay: Western blot of MMP-9 in HGF-1 cells treated with FAC or deferoxamine; format: cell-based, human; conditions: HGF-1 stimulated with FAC 20, 50 and 100 μM, 48 hours, FIG. 10
Description: as §1, §2, §3, §4

[7] = tested on: Human MMP-8; MMP8; conditions: HGF-1, 100 μM FAC, FIG. 17
Description: (§5) Gene expression of MMPs was evaluated after treatment with CMK and deferoxamine. Tissue culture was washed with 1×PBS prior to collection of samples. Cells were lysed and RNA purified using an RNeasy mini kit (Cat #74104) from Qiagen. RNA prep Kit was used according to manufacturer's protocol. All samples were treated with Qiagen DNase (Cat #79254). One microgram of RNA was used for reverse transcription and subsequent SYBR® Green real time PCR for the genes of interest as previously described. Reverse transcription kits (Cat #330401) and SYBR Green real-time PCR master mixes (Cat #330523) were purchased from Qiagen (Louisville, KY).
(§6) The following primers and probes were used: Human MMP-2; MMP2 (Cat #PPH00151B), Human MMP-8; MMP8 (Cat #PPH00908C), Human MMP-13; MMP13 (Cat #PPH00121B), Human MMP-14; MMP14 (Cat #PPH00198C), and Human glyceraldehyde 3-phosphate dehydrogenase; GAPDH (Cat #PPH00150F).
(§7) FIG. 17 is a summary of the qPCR analysis for each MMP.

[8] = tested on: MMPs; conditions: HGF-1, 100 μM FAC, FIG. 17
Description: as §5, §6, §7

Compound | Cell viability [1] | presence of MMP-2 protein [2] | presence of MMP-13 protein [3] | presence of MMP-14 protein [4] | MMP-3 protein expression [5] | MMP-9 protein expression [6] | MMP-8 gene expression (qPCR) [7] | gene expression of the MMPs (qPCR) [8]
CC(=O)N(O)CCCCCNC(=O)CCC(=O)N(O)CCCCCNC(=O)CCC(=O)N(O)CCCCCN [deferoxamine] | unaffected |  |  |  |  |  |  | 
Ferric ammonium citrate [FAC] |  | dose-dependent increased presence | dose-dependent increased presence | dose-dependent increased presence | increased expression | increased expression | except for MMP-8 | acted as an inducer of gene expression of the MMPs
